Laboratory results: PubChem BioAssay AID248 (DTP/NCI, 2004)
Several values for one entry are separate records, joined by “and”; a condition that tells them apart may be missing. Equal values may be shown once. Toxic doses and inconclusive results are not listed. Cut-off read from the data, not from the text of the source: active = T/C of 150% or more; inactive = T/C below 125%.

Tested on: L1210 leukemia ip in BDF1 mice, survival T/C
Test: NCI In Vivo Anticancer Drug Screen. Data for tumor model L1210 Leukemia (intraperitoneal) in B6D2F1 (BDF1) mice
Details: endpoint: mean survival time, higher = longer survival
Method in brief: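 Transplantable tumor model; survival measured in treated vs vehicle control mice. Value = treated/control.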

[1] = dose: 100.0 mg/kg/injection, schedule: Q01DX009 (ip), vehicle: saline with Tween-80
[2] = dose: 100.0 mg/kg/injection, schedule: Q04DX002 (ip), vehicle: saline with Tween-80
[3] = dose: 100.0 mg/kg/injection, schedule: Q04DX003 (ip), vehicle: saline with Tween-80
[4] = dose: 200.0 mg/kg/injection, schedule: Q01DX009 (ip), vehicle: saline with Tween-80
[5] = dose: 200.0 mg/kg/injection, schedule: Q04DX002 (ip), vehicle: saline with Tween-80
[6] = dose: 200.0 mg/kg/injection, schedule: Q04DX003 (ip), vehicle: saline with Tween-80
[7] = dose: 400.0 mg/kg/injection, schedule: Q01DX009 (ip), vehicle: saline with Tween-80
[8] = dose: 400.0 mg/kg/injection, schedule: Q04DX002 (ip), vehicle: saline with Tween-80
[9] = dose: 100.0 mg/kg/injection, schedule: Q01DX009 (ip), vehicle: saline
[10] = dose: 100.0 mg/kg/injection, schedule: Q01DX001 (ip), vehicle: saline
[11] = dose: 200.0 mg/kg/injection, schedule: Q01DX001 (ip), vehicle: saline
[12] = dose: 400.0 mg/kg/injection, schedule: Q01DX001 (ip), vehicle: saline
[13] = dose: 50.0 mg/kg/injection, schedule: Q04DX002 (ip), vehicle: saline with Tween-80
[14] = dose: 100.0 mg/kg/injection, schedule: Q01DX001 (ip), vehicle: saline with Tween-80
[15] = dose: 200.0 mg/kg/injection, schedule: Q01DX001 (ip), vehicle: saline with Tween-80
[16] = dose: 400.0 mg/kg/injection, schedule: Q04DX003 (ip), vehicle: saline with Tween-80
[17] = dose: 100.0 mg/kg/injection, schedule: Q04DX002 (ip), vehicle: Klucel (hydroxypropylcellulose) (HPC)
[18] = dose: 200.0 mg/kg/injection, schedule: Q04DX002 (ip), vehicle: Klucel (hydroxypropylcellulose) (HPC)

Measured: T/C

CC(C)(C)NC(=O)Nc1ccccn1
inactive: [1] 102 % of control and 112 % of control | [2] 96 % of control | [3] 97 % of control | [4] 112 % of control and 91 % of control | [5] 108 % of control and 115 % of control | [6] 115 % of control | [7] 104 % of control | [8] 94 % of control and 96 % of control

CC(C)NCCC(=O)c1ccc(OCc2ccccc2)cc1
inactive: dose: 25.0 mg/kg/injection, schedule: Q01DX009 (ip), vehicle: saline 106 % of control | dose: 50.0 mg/kg/injection, schedule: Q01DX009 (ip), vehicle: saline 110 % of control | [9] 106 % of control and 119 % of control

CCC(C)(C)N
inactive: [10] 91 % of control | [11] 97 % of control | [12] 101 % of control

C1=COC(C2NCCCN2)CC1 (stereo unspecified)
inactive: [10] 102 % of control | [11] 111 % of control | [12] 106 % of control

Nc1ncc(Br)c2ccccc12
inactive: [3] 96 % of control | [6] 103 % of control

CC(CO)CCC(=O)C(C)C1C2(CC3C4CCC5CC(O)CCC5(C)C4CCC31C)SCCS2 (stereo unspecified)
inactive: dose: 25.0 mg/kg/injection, schedule: Q04DX002 (ip), vehicle: saline with Tween-80 100 % of control | [13] 100 % of control | [2] 96 % of control

O/N=C1/CCCC/C1=C/c1ccc(Cl)cc1
inactive: [1] 104 % of control | [4] 111 % of control | [7] 88 % of control

COc1ccc(OC)c(NC(=O)c2cccc3ccccc23)c1
inactive: dose: 50.0 mg/kg/injection, schedule: Q01DX001 (ip), vehicle: saline with Tween-80 102 % of control | [14] 91 % of control | [1] 93 % of control and 96 % of control | [2] 100 % of control and 91 % of control | [3] 95 % of control | [15] 95 % of control | [4] 105 % of control and 90 % of control | [5] 113 % of control and 91 % of control | [6] 95 % of control | [7] 87 % of control and 91 % of control | [8] 94 % of control and 95 % of control | [16] 94 % of control

CCCCCCCCCCCCCCCCCC[n+]1cccc(C#N)c1
inactive: dose: 5.0 mg/kg/injection, schedule: Q01DX009 (ip), vehicle: saline 98 % of control | dose: 10.0 mg/kg/injection, schedule: Q01DX001 (ip), vehicle: saline 93 % of control | dose: 10.0 mg/kg/injection, schedule: Q01DX009 (ip), vehicle: saline 92 % of control | dose: 10.0 mg/kg/injection, schedule: Q04DX003 (ip), vehicle: saline 105 % of control | dose: 20.0 mg/kg/injection, schedule: Q01DX001 (ip), vehicle: saline 91 % of control | dose: 20.0 mg/kg/injection, schedule: Q04DX003 (ip), vehicle: saline 97 % of control | dose: 40.0 mg/kg/injection, schedule: Q01DX001 (ip), vehicle: saline 91 % of control | dose: 40.0 mg/kg/injection, schedule: Q04DX003 (ip), vehicle: saline 114 % of control

CC(=O)NC1C(OCc2ccccc2)OC(COC(c2ccccc2)(c2ccccc2)c2ccccc2)C(N=[N+]=[N-])C1OCc1ccccc1 (stereo unspecified)
inactive: [14] 86 % of control | [15] 86 % of control | dose: 400.0 mg/kg/injection, schedule: Q01DX001 (ip), vehicle: saline with Tween-80 102 % of control

CCN1N=Nc2cccc3cccc1c23
inactive: dose: 100.0 mg/kg/injection, schedule: Q04DX003 (ip), vehicle: acetone 99 % of control | dose: 200.0 mg/kg/injection, schedule: Q04DX003 (ip), vehicle: acetone 100 % of control

CC1(C)CC(OP(=O)(OC2CC(C)(C)N(O)C(C)(C)C2)OC2CC(C)(C)N(O)C(C)(C)C2)CC(C)(C)N1O
inactive: dose: 50.0 mg/kg/injection, schedule: Q01DX001 (ip), vehicle: water 104 % of control | dose: 100.0 mg/kg/injection, schedule: Q01DX001 (ip), vehicle: water 94 % of control and 97 % of control | dose: 200.0 mg/kg/injection, schedule: Q01DX001 (ip), vehicle: water 103 % of control | dose: 400.0 mg/kg/injection, schedule: Q01DX001 (ip), vehicle: water 113 % of control

COc1cc(Oc2c(OC)cc(/C(C)=N/O)cc2OC)cc(OC)c1OC
inactive: [3] 105 % of control | [6] 92 % of control | [16] 95 % of control

CCCCCCCCOC(=O)c1[nH]cnc1N
inactive: dose: 50.0 mg/kg/injection, schedule: Q01DX001 (ip), vehicle: saline 100 % of control | [10] 96 % of control | [11] 96 % of control

CCOC(=O)NN(C(=O)OCC)c1c(NNC(C)=O)nc(N)[nH]c1=O
inactive: [10] 99 % of control | [11] 92 % of control | [12] 99 % of control

Cc1c(Cl)cccc1NC(=O)Nc1ccccc1F
inactive: dose: 100.0 mg/kg/injection, schedule: Q01DX009 (ip), vehicle: Klucel (hydroxypropylcellulose) (HPC) 91 % of control | [17] 97 % of control | dose: 200.0 mg/kg/injection, schedule: Q01DX009 (ip), vehicle: Klucel (hydroxypropylcellulose) (HPC) 106 % of control | [18] 97 % of control | dose: 400.0 mg/kg/injection, schedule: Q01DX009 (ip), vehicle: Klucel (hydroxypropylcellulose) (HPC) 96 % of control | dose: 400.0 mg/kg/injection, schedule: Q04DX002 (ip), vehicle: Klucel (hydroxypropylcellulose) (HPC) 94 % of control

NC1(C(=O)O)CC(O)(c2ccccc2)C(O)(c2ccccc2)C1 (stereo unspecified)
inactive: [10] 88 % of control | [11] 93 % of control

CCOC(=O)/C(C#N)=C(\CCc1ccccc1)CC(C)C
inactive: [2] 101 % of control | [5] 101 % of control | [8] 104 % of control

CC(C)C1=CC2=CCC3C(C)(C#N)CCCC3(C)C2CC1CC#N (stereo unspecified)
inactive: [3] 88 % of control | [16] 92 % of control

O/N=C/c1cccc(CC(O)(C(F)(F)F)C(F)(F)F)n1
inactive: [13] 103 % of control | dose: 100.0 mg/kg/injection, schedule: Q01DX001 (ip), vehicle: Klucel (hydroxypropylcellulose) (HPC) 98 % of control | [2] 88 % of control | dose: 200.0 mg/kg/injection, schedule: Q01DX001 (ip), vehicle: Klucel (hydroxypropylcellulose) (HPC) 98 % of control | [5] 109 % of control | dose: 400.0 mg/kg/injection, schedule: Q01DX001 (ip), vehicle: Klucel (hydroxypropylcellulose) (HPC) 87 % of control | [8] 106 % of control

CC(C)(NC(=O)OCc1ccccc1)C(=O)O
inactive: [3] 98 % of control | [6] 95 % of control | [16] 101 % of control

CCOC(C(=O)O)(c1ccccc1)c1ccccc1
inactive: [17] 97 % of control | [18] 97 % of control
